Reference: publication PMC8915600, “Optimization of experimental conditions for skin-PAMPA measurements” (ADMET & DMPK, 2020)
Marks after values point to notes of the source that are not given here.

Test: skin-PAMPA permeability assay (gradient-pH, UPLC-DAD)
Details: PAMPA, pH 7.4, log Pe, optimized assay conditions (4 h incubation, stirring); measured at the pH corresponding to the neutral form; acceptor pH 7.4

Compound	Papp at 4 h, 50 μM
Oc1ccc(O)cc1 [Hydroquinone]	1.35 ×10⁻⁶ cm/s
c1ccc2cnccc2c1 [Isoquinoline]	63.1 ×10⁻⁶ cm/s
COc1ccccc1 [Methyl phenyl ether (Anisole), Methyl phenyl ether]	45.7 ×10⁻⁶ cm/s
CN1C(C(=O)Nc2ccccn2)=C(O)c2ccccc2S1(=O)=O [Piroxicam]	21.4 ×10⁻⁶ cm/s

Same assay, conditions: optimized assay conditions (4 h incubation, stirring); measured at the pH corresponding to the neutral form; acceptor pH 7.4

Compound	log Pe
COC(=O)Cc1ccc(O)cc1 [4-Hydroxy-methylphenylacetate]	-5.07±0.09 cm/s
CC(=O)[C@@]1(O)CC[C@H]2[C@@H]3CCC4=CC(=O)CC[C@]4(C)[C@H]3CC[C@@]21C [Hydroxyprogesterone]	-4.70±0.05 cm/s
Nc1ccccc1N [o-Phenylenediamine]	-5.42±0.02 cm/s

Test: not given
Details: human; cited from earlier work

Compound	log Kp
CCC1(CC)C(=O)NC(=O)NC1=O [5,5-Diethylbarbituric acid (Barbital), 5,5-Diethylbarbituric acid]	-7.29 cm/s
CCC1(c2ccccc2)C(=O)NC(=O)NC1=O [5-Ethyl-5-phenylbarbituric acid]	-6.68 cm/s
Nc1ccccc1 [Aniline]	-4.94 cm/s

Same assay, conditions: logarithm of human skin permeation coefficient, neutral form; corrected for ionization in water and for temperature at 37 °C; cited from earlier work

Compound	log Kp
Oc1ccc(Cl)cc1Cl [2,4-Dichlorophenol]	-4.30 cm/s
Cc1cccc(O)c1 [3-Methylphenol (m-Cresol), 3-Methylphenol]	-4.89 cm/s
Oc1ccc(Cl)cc1 [4-Chlorophenol]	-4.52 cm/s
COC(=O)Cc1ccc(O)cc1 [4-Hydroxy-methylphenylacetate]	-5.26 cm/s
O=[N+]([O-])c1ccc(O)cc1 [4-Nitrophenol]	-5.33 cm/s
Cc1c(N(C)C)c(=O)n(-c2ccccc2)n1C [Aminopyrine]	-6.55 cm/s
Cn1c(=O)c2c(ncn2C)n(C)c1=O [Caffeine]	-6.85 cm/s
C[C@]12CC[C@@H]3c4ccc(O)cc4CC[C@H]3[C@@H]1CC[C@@H]2O [Estradiol]	-5.61 cm/s
Oc1ccc(O)cc1 [Hydroquinone]	-6.31 cm/s
CC(=O)[C@@]1(O)CC[C@H]2[C@@H]3CCC4=CC(=O)CC[C@]4(C)[C@H]3CC[C@@]21C [Hydroxyprogesterone]	-6.30 cm/s
c1ccc2cnccc2c1 [Isoquinoline]	-5.11 cm/s
CC(C(=O)O)c1cccc(C(=O)c2ccccc2)c1 (stereo not drawn) [Ketoprofen]	-5.22 cm/s
COC(=O)c1ccc(O)cc1 [Methyl 4-hydroxybenzoate]	-5.12 cm/s
COc1ccccc1 [Methyl phenyl ether (Anisole), Methyl phenyl ether]	-4.68 cm/s
CN1C(C(=O)Nc2ccccn2)=C(O)c2ccccc2S1(=O)=O [Piroxicam]	-6.02 cm/s
Nc1ccccc1N [o-Phenylenediamine]	-6.70 cm/s

Test: in vitro
Details: PAMPA, pH 7.4, log Pe

Compound	Papp at 4 h, 50 μM	Papp
Oc1ccc(Cl)cc1Cl [2,4-Dichlorophenol]	120 ×10⁻⁶ cm/s	–
CCC1(CC)C(=O)NC(=O)NC1=O [5,5-Diethylbarbituric acid (Barbital), 5,5-Diethylbarbituric acid]	–	1.78 ×10⁻⁶ cm/s
CCC1(c2ccccc2)C(=O)NC(=O)NC1=O [5-Ethyl-5-phenylbarbituric acid]	–	0.891 ×10⁻⁶ cm/s
Nc1ccccc1 [Aniline]	–	28.2 ×10⁻⁶ cm/s

Same assay, conditions: PAMPA, pH 7.4, log Pe, optimized assay conditions (4 h incubation, stirring); measured at the pH corresponding to the neutral form; acceptor pH 7.4

Compound	Papp
Cc1cccc(O)c1 [3-Methylphenol (m-Cresol), 3-Methylphenol]	46.8 ×10⁻⁶ cm/s
O=[N+]([O-])c1ccc(O)cc1 [4-Nitrophenol]	12.3 ×10⁻⁶ cm/s

Test: not given
Details: aqueous; cited from earlier work

Compound	pKa
Cc1c(N(C)C)c(=O)n(-c2ccccc2)n1C [Aminopyrine]	5.00 ^b
